pIC50: −log10 of the molar value. Where two headings read alike, the source gives them in different places.

In one test the target is T1, Chk1 (Homo sapiens, UniProt O14757).
T1 sequence (O14757 1-476): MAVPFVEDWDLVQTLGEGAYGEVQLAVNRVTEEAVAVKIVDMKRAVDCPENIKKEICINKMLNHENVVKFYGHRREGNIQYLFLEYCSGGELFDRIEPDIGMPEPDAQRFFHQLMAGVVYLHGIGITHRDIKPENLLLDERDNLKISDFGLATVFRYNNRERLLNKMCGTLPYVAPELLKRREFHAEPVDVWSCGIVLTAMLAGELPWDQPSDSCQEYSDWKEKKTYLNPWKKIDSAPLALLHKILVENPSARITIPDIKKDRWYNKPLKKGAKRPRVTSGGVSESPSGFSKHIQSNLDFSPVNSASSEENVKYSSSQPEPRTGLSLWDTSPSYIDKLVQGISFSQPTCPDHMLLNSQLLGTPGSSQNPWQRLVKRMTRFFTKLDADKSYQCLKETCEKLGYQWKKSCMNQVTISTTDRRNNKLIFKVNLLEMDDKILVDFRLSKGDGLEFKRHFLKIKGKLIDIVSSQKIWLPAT
The test can be described thus: Chk1 kinase assay, phosphorylation of Chktide (33P-ATP filtration). It counts as biochemical. The protocol: Assays for the Chk1 kinase activity were carried out by monitoring the phosphorylation of a synthetic peptide Chktide with the amino acid sequence, […]. The assay mixture containing the inhibitor and Chk1 enzyme was mixed together in a microtiter plate in a final volume of 50 μl and incubated for 40 minutes at 30° C.
The assay mixture contained 0.01 mM unlabeled ATP, 0.5 μCi ^33P-γ-ATP, 30 μM Chktide, 0.1 mg/ml BSA, 50 mM Hepes-NaOH pH 7.5 and 11 nM GST-Chk1 enzyme. The reaction was stopped by adding 50 μl of 50 mM phosphoric acid. 90 μl of the mixture was transferred to a pre-wetted 96-well Multiscreen MAPHNOB filtration plate (Millipore) and filtered on a vacuum manifold. The filter plate was washed with three successive additions of 200 μl 50 mM phosphoric acid and then with 100 μl methanol. The filtration plate was dried for 10 min at 65° C., scintillant added and phosphorylated peptide quantified in a scintillation counter (Trilux, PerkinElmer).

In a further test the target is T2, PDK1 enzyme (Homo sapiens, UniProt O15530).
T2 sequence (O15530 1-556): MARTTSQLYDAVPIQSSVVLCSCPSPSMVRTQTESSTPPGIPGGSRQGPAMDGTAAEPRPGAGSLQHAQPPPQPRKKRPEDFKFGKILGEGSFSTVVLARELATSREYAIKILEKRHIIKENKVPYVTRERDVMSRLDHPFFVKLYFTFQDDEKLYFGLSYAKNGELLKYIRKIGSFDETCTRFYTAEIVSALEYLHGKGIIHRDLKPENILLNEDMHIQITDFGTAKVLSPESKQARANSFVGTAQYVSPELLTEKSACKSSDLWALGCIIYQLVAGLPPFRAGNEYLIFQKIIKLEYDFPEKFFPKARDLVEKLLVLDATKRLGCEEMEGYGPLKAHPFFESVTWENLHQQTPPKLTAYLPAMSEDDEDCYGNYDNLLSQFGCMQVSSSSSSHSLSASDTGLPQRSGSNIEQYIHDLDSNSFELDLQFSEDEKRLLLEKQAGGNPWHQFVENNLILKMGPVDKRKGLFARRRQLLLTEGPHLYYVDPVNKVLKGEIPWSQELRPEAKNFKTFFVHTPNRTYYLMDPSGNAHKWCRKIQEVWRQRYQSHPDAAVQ
The test can be described thus: PDK1 3'-phosphoinositide-dependent kinase assay, phosphorylation of synthetic peptide (33P-ATP filtration). In kind it is biochemical. The procedure:
The assay mixture containing the inhibitor and PDK1 enzyme was mixed together in a microtiter plate in a final volume of 50 μl and incubated for 60 min at 30° C. The assay mixture contained 0.01 mM unlabeled ATP, 0.01 μCi/μl ^33P-γ-ATP, 0.075 mM peptide, 0.1 mg/ml BSA, 7.5 mM magnesium acetate, 0.05 M Tris.HCl, pH 7.5, 0.5% 2-mercaptoethanol. The reaction was stopped by adding 50 μl of 50 mM phosphoric acid. 90 μl of the mixture were transferred to a pre-wetted 96-well Multiscreen MAPHNOB filtration plate (Millipore) and filtered on a vacuum manifold. The filter plate was washed with three successive additions of 200 μl 50 mM phosphoric acid and then with 100 μl methanol. The filtration plate was dried for 10 min at 65° C., scintillant added and phosphorylated peptide quantified in a scintillation counter (Trilux, PerkinElmer).

[1] abbreviates: Table 4, 0.01 mM ATP, read-out: Chk1 IC50.
Where [2] appears, read: Table 4, 0.01 mM ATP, read-out: PDK1 IC50.
Where [3] appears, read: Table 1, 0.01 mM ATP, read-out: Chk1 IC50.
Where [4] appears, read: Table 1, 0.01 mM ATP, read-out: PDK1 IC50.

Regarding `CCOc1cccc(-c2cc(Nc3ccc(C(N)=O)cc3)nc3ncnn23)c1` [Example 144], the values for the pIC50 at Chk1 (setting [1]) and on PDK1 enzyme (setting [2]) were 4.17 and 4.91, respectively.
The corresponding values for `CN(C)c1ccc(Nc2cc(-c3cccc(F)c3)n3ncnc3n2)cc1` [Example 158] are 5.17 and 4.98.
For `CCCc1cc(OC)cc(-c2cc(Nc3ccc(C(N)=O)cc3)nc3ncnn23)c1` [Example 160], in that order: 4.80 and 5.88.
Consider `Fc1cccc(-c2cc(Nc3ccc(Oc4ccccc4)cc3)nc3ncnn23)c1` [Example 153], for which the results for the pIC50 on Chk1 (setting [1]) and on PDK1 enzyme (setting [2]) were 4.61 and 4.92, respectively.
As to `O=S(=O)(Nc1nccs1)c1ccc(Nc2cc(-c3cccc(F)c3)n3ncnc3n2)cc1` [Example 156], the figures for the pIC50 at Chk1 (setting [1]) and at PDK1 enzyme (setting [2]) were 4.89 and 5.10, respectively.
Regarding `Brc1cccc(-c2cc(NCc3ccncc3)n3ncnc3n2)c1` [Example 55], the pIC50 against Chk1 and against PDK1 enzyme was below 3.70 throughout.
As for `CN(C)CCOc1cccc(-c2cc(Nc3ccc(C(N)=O)cc3)nc3ncnn23)c1` [Example 163], the values for the pIC50 at Chk1 (setting [1]) and at PDK1 enzyme (setting [2]) were 5.01 and 5.26, respectively.
Take `NS(=O)(=O)c1ccc(Nc2cc(OC3CCCCC3)nc3ncnn23)cc1` [Example 2, 7-(4-Aminosulfonylphenylamino)-5-cyclohexyloxytriazolo[1,5-a]pyrimidine]: the pIC50 at Chk1 (setting [3]) and on PDK1 enzyme (setting [4]) was below 3.70 throughout.
For the compound `NC(=O)Cc1ccc(Nc2cc(-c3ccc4c(c3)OCO4)n3ncnc3n2)cc1` [Example 143], the pIC50 at Chk1 (setting [1]) is 5.33; on PDK1 enzyme (setting [2]), 4.94.
As to `NS(=O)(=O)c1ccc(Nc2cc(OCC3CCCCC3)nc3ncnn23)cc1` [Example 51], the pIC50 on Chk1 (setting [3]) and at PDK1 enzyme (setting [4]) was below 3.70 each time.
On to `CNS(=O)(=O)Cc1ccc(Nc2cc(-c3cccc(F)c3)n3ncnc3n2)cc1` [Example 159], for which the pIC50 at Chk1 (setting [1]) was 4.65; at PDK1 enzyme (setting [2]), 5.12.
The corresponding values for `Fc1cccc(-c2cc(Nc3ccc(Sc4ccccc4)cc3)nc3ncnn23)c1` [Example 155] are 4.82 and 4.90.
As to `NC(=O)c1ccc(Nc2cc(-c3cccc(O)c3)n3ncnc3n2)cc1` [Example 142], the pIC50 at Chk1 (setting [1]) is 5.41; on PDK1 enzyme (setting [2]) it was 5.33.
The corresponding values for `Fc1cccc(-c2cc(Nc3cccc(Oc4ccccc4)c3)nc3ncnn23)c1` [Example 152] are 4.48 and 4.87.
The corresponding values for `CCc1cc(O)cc(-c2cc(Nc3ccc(C(=O)NCCN(CC)CC)cc3)nc3ncnn23)c1` [Example 164] are 6.18 and 5.80.
In the case of `NS(=O)(=O)c1ccc(Nc2cc(NC3CCCCC3)nc3ncnn23)cc1` [Example 37], the results for the pIC50 at Chk1 (setting [3]) and at PDK1 enzyme (setting [4]) were below 3.70 and 4.19, respectively.
With `CCc1cc(OCCN)cc(-c2cc(Nc3ccc(C(=O)NCCN(CC)CC)cc3)nc3ncnn23)c1` [Example 167], the pIC50 at Chk1 (setting [1]) is 5.47; at PDK1 enzyme (setting [2]), 5.40.
The corresponding values for `NC(=O)c1ccc(Nc2cc(-c3cccc(OCC4CCNCC4)c3)n3ncnc3n2)cc1` [Example 150] are 4.70 and 4.84.
For `CCCc1cc(OCCN(C)C)cc(-c2cc(Nc3ccc(C(N)=O)cc3)nc3ncnn23)c1` [Example 162], in that order: 4.50 and 5.13.
`CCCc1cc(OCCN)cc(-c2cc(Nc3ccc(C(N)=O)cc3)nc3ncnn23)c1` [Example 161]: the pIC50 at Chk1 (setting [1]) was 5.04; on PDK1 enzyme (setting [2]) it was 5.78.
As to `CCN(CC)c1cc(NCC2CCNCC2)n2ncnc2n1` [Example 86], the negative logarithm of the IC50 (pIC50) at Chk1 (Table 2, 0.01 mM ATP, read-out: Chk1 IC50) was below 3.70; on PDK1 enzyme (Table 2, 0.01 mM ATP, read-out: PDK1 IC50), below 3.70.
`NS(=O)(=O)c1ccc(Nc2cc(N[C@H]3CC[C@H](N)CC3)nc3ncnn23)cc1` [Example 36]: the results for the pIC50 on Chk1 (setting [3]) and on PDK1 enzyme (setting [4]) were 4.03 and 4.36, respectively.

The pIC50 is the negative decadic logarithm of the IC50, by convention in mol/L.

The record behind these values is patent US20070275961A1, “Triazolo ' 1, 5-A ! Pyrimidines and Their Use in Medicine” (VERNALIS (CAMBRIDGE) LIMITED., priority 2003, published 2007).
